The values below come from paper PMC5533763, “Two dopamine D2-like receptor genes from the silkworm (Bombyx mori) and their evolutionary history in metazoan” (Scientific Reports, 2017).

Each structure is given as a SMILES string.

The assay deals with T1, BmDop2R2 (Bombyx mori, UniProt A0A2D1QSC3).
T1 construct: full-length ORF (536 residues printed; 1596 bp ORF, which would give about 531; 7 TM) in pcDNA3.1(+), HindIII/NotI, transfected HEK-293 cells; no tag mentioned; chromosome 18, nscaf 2901; tandem paralogue of BmDop2R1 (440 residues, lacks TM I-II)
T1 sequence (A0A2D1QSC3 1-536): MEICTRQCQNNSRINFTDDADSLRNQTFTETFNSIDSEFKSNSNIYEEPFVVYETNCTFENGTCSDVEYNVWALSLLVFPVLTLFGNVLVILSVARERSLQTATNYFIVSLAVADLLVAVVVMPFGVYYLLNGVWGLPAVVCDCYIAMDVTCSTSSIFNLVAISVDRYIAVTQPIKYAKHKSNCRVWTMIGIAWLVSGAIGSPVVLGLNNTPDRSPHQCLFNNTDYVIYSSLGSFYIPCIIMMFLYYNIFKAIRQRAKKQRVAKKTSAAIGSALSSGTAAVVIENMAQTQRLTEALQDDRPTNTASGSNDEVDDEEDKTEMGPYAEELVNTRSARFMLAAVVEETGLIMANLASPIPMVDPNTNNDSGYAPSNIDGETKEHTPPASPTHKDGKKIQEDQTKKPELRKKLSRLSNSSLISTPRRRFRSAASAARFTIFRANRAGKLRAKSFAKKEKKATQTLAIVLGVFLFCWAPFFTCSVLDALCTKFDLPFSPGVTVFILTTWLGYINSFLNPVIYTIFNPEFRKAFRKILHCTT
The assay is described as follows: cAMP ELISA in transfected HEK-293 cells (inhibition of forskolin-stimulated cAMP). The class given is cell-based. For orientation: ELISA stands for enzyme-linked immunosorbent assay.

The EC50 is the concentration giving half of the maximal effect. The low end stands for a more potent agent, the high end for a less potent agent. In turn, `NCCc1ccc(O)c(O)c1` [dopamine] displayed an EC50 of 657 nM.
